We go through 19 molecules from US20260217708A1, “FUSED BENZAZEPINE DERIVATIVES FOR USE IN THE TREATMENT OF CANCER AND EPILEPSY” (UCB BIOPHARMA SRL, priority 2023, published 2026).

Assay [1] addresses T1, system Xc^− (Homo sapiens, UniProt Q9UPY5).
T1 sequence (Q9UPY5 1-501): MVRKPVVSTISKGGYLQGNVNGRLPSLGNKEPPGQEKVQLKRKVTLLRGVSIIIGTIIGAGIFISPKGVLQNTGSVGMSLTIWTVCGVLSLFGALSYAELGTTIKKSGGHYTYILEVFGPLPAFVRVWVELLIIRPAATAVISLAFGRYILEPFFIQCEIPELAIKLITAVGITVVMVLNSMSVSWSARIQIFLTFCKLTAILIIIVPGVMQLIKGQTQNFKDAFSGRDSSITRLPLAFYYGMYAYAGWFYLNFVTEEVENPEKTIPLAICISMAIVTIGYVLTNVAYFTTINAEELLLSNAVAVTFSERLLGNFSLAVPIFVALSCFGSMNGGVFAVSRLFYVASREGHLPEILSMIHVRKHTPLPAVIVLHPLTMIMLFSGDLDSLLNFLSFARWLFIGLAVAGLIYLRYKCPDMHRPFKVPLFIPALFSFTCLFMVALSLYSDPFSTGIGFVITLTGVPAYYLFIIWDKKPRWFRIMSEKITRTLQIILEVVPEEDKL
T1 sequence (P08195 1-529 partner): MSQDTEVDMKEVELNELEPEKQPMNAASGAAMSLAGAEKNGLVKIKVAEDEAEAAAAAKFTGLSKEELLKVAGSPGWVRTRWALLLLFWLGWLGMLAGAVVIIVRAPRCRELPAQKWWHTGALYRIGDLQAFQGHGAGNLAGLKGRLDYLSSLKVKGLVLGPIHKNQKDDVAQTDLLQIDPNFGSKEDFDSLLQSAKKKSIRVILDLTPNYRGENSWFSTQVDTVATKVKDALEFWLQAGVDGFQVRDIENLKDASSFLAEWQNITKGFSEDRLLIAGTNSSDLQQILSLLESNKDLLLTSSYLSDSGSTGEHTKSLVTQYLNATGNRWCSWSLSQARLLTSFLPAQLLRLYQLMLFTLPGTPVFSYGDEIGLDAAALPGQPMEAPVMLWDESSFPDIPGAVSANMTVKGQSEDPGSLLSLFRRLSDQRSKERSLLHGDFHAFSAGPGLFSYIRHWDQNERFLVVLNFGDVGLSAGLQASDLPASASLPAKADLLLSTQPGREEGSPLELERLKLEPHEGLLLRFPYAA
The assay can be described thus: Cystine-induced glutamate release assay. More on the design: endogenous in cells; host or cells: H4 cells. The conditions noted are these: H4 cells, sodium-free HEPES buffer, 50 μM L-Cystine, 2 hours, Amplex Red glutamate readout; read-out: pIC50 Cystine-induced glutamate release assay (converted). Type of assay: cell-based. In a few lines:
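IC50 (reported as pIC50) normalized to DMSO 1% and Erastin 50 μM controls, from Amplex Red fluorescence of glutamate exported into supernatant. H4 cells were washed into sodium-free buffer to exclude EAAT transport, then given compound with 50 μM L-cystine for 2 h in the incubator.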

Assay [2] concerns the target T1, system Xc^−. The assay can be described thus: [^14C]L-Cystine uptake assay. Type of assay: cell-based. The arrangement: endogenous in cells; host or cells: H4 cells. The conditions noted are these: H4 cells, sodium-free HEPES buffer, 0.5 μM L-[14C]Cystine and 4.5 μM L-Cystine, 1 hour at 37° C.; read-out: pIC50 [^14C] L-Cystine uptake assay (converted). The method in brief: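 Compound effect is given as pIC50, taken between controls of 1% DMSO and 50 μM Erastin. Human H4 cells were pretreated 15 min with compound in sodium-free buffer, then took up 0.5 μM [14C]cystine with 4.5 μM cold cystine for 1 hour at 37° C, read by scintillation proximity counting.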

Regarding `CC1C(=O)N(CC(=O)Nc2ccc(Cl)c(F)c2)c2cc(Cl)cc(F)c2-c2nccnc21` (single isomer, unassigned) [#414, 2-[9-chloro-11-fluoro-5-methyl-6-oxo-5H-pyrazino[2,3-d][1]benzazepin-7-yl]-N-(4-chloro-3-fluoro-phenyl)acetamide], the IC50 was 0.0398 to 0.1 µM in assay [1] and 0.0158 to 0.0398 µM in assay [2].
The like results for `CC1C(=O)N(CC(=O)Nc2ccc(C(F)F)cc2)c2cc(N3CC(C)(O)C3)nc(F)c2-c2cccnc21` (single isomer, unassigned) [#275, N-[4-(difluoromethyl)phenyl]-2-[3-fluoro-5-(3-hydroxy-3-methyl-azetidin-1-yl)-10-methyl-9-oxo-4,8,12-triazatricyclo[9.4.0.0^2,7]pentadeca-1(15),2,4,6,11,13-hexaen-8-yl]acetamide] were, in that order, under 0.0158 µM and under 0.0158 µM.
On to `Cc1cc2c(c(F)n1)-c1cccnc1[C@@H](C)C(=O)N2CC(=O)Nc1ccc(I)cc1` [#138, 2-[(10R)-3-fluoro-5,10-dimethyl-9-oxo-4,8,12-triazatricyclo[9.4.0^2,7]pentadeca-1(11),2(7),3,5,12,14-hexaen-8-yl]-N-(4-iodophenyl)acetamide], for which the IC50 in assay [1] and in assay [2] was under 0.0158 µM each time.
In the case of `CN1CCN(c2cc3c(cn2)-c2ccccc2CC(=O)N3CC(=O)Nc2ccc(C(F)(F)F)cc2)CC1=O` [#46, 2-[3-(4-methyl-3-oxo-piperazin-1-yl)-6-oxo-7H-pyrido[4,3-d][3]benzazepin-5-yl]-N-[4-(trifluoromethyl)phenyl]acetamide], the IC50 in assay [1] was 0.0398 to 0.1 µM; in assay [2], 0.0158 to 0.0398 µM.
The like results for `Cc1cc2c(c(Cl)n1)-c1ccccc1CC(=O)N2CC(=O)Nc1ccc(C(F)(F)F)cc1` [#49, 2-(1-chloro-3-methyl-6-oxo-7H-pyrido[4,3-d][3]benzazepin-5-yl)-N-[4-(trifluoromethyl)phenyl]acetamide] were, in that order, 0.0158 to 0.0398 µM and under 0.0158 µM.
The like results for `Cc1cc2c(c(Cl)n1)-c1cncnc1C(C)C(=O)N2CC(=O)Nc1ccc(C(F)(F)F)cc1` (centres unmarked) [#163, 2-(15-chloro-8,13-dimethyl-9-oxo-4,6,10,14-tetrazatricyclo[9.4.0.0^2,7]pentadeca-1(11),2(7),3,5,12,14-hexaen-10-yl)-N-[4-(trifluoromethyl)phenyl]acetamide] were, in that order, 0.0158 to 0.0398 µM and 0.0158 to 0.0398 µM.
The like results for `O=C(CN1C(=O)Cn2nccc2-c2cnc(Cl)cc21)Nc1ccc(C(F)(F)F)cc1` [#37, 2-(12-chloro-8-oxo-5,6,9,13-tetrazatricyclo[8.4.0.0^2,6]tetradeca-1(10),2,4,11,13-pentaen-9-yl)-N-[4-(trifluoromethyl)phenyl]acetamide] were, in that order, 0.1 to 0.501 µM and 0.1 to 0.501 µM.
Take `Cc1cc2c(c(F)n1)-c1ncc(F)cc1CC(=O)N2CC(=O)Nc1ccc(Cl)c(F)c1` [#417, N-(4-chloro-3-fluoro-phenyl)-2-(5,15-difluoro-13-methyl-9-oxo-3,10,14-triazatricyclo[9.4.0.0^2,7]pentadeca-1(11),2,4,6,12,14-hexaen-10-yl)acetamide]: the IC50 in assay [1] was 0.0398 to 0.1 µM; in assay [2], 0.0158 to 0.0398 µM.
Consider `CC1C(=O)N(CC(=O)Nc2ccc(C(F)F)cc2)c2cc(C#N)cc(F)c2-c2cccnc21` (single isomer, unassigned) [#309, 2-[9-cyano-11-fluoro-5-methyl-6-oxo-5H-pyrido[2,3-d][1]benzazepin-7-yl]-N-[4-(difluoromethyl)phenyl]acetamide], for which the IC50 in assay [1] and in assay [2] was 0.0158 to 0.0398 µM each time.
`COc1cc2c(c(F)n1)-c1cccnc1[C@@H](C)C(=O)N2CC(=O)Nc1ccc(C(F)(F)F)cc1` (single isomer, unassigned) [#209, Enantiomer (10S) or (10R) of 2-[3-fluoro-5-methoxy-10-methyl-9-oxo-4,8,12-triazatricyclo[9.4.0.0^2,7]pentadeca-1(15),2(7),3,5,11,13-hexaen-8-yl]-N-[4-(trifluoromethyl)phenyl]acetamide]: the IC50 in assay [1] and in assay [2] was 0.0158 to 0.0398 µM in each case.
Regarding `COc1nc(C)cc2c1-c1cccnc1CC(=O)N2CC(=O)Nc1ccc(C(F)(F)F)nc1` [#79, 2-(3-methoxy-5-methyl-9-oxo-4,8,12-triazatri-cyclo[9.4.0.0^2,7]penta-deca-1(11),2,4,6,12,14-hexaen-8-yl)-N-[6-(tri-fluoromethyl)-3-pyridyl] acetamide], the IC50 in assay [1] and in assay [2] was 0.1 to 0.501 µM each time.
As for `Cc1cc2c(c(F)n1)-c1cccc(CO)c1CC(=O)N2CC(=O)Nc1ccc(C(F)(F)F)cc1` [#165, 2-[1-fluoro-8-(hydroxymethyl)-3-methyl-6-oxo-7H-pyrido[4,3-d][3]benzazepin-5-yl]-N-[4-(trifluoromethyl)phenyl]acetamide], the IC50 in assay [1] and in assay [2] was 0.1 to 0.501 µM throughout.
In the case of `C[C@@H]1C(=O)N(CC(=O)Nc2ccc(C(F)F)cc2)c2cc(N3CC[C@@H](F)C3)nc(F)c2-c2cccnc21` (single isomer, unassigned) [#277, N-[4-(difluoromethyl)phenyl]-2-[3-fluoro-5-[3-fluoropyrrolidin-1-yl]-10-methyl-9-oxo-4,8,12-triazatricyclo[9.4.0.0^2,7]pentadeca-1(15),2,4,6,11,13-hexaen-8-yl]acetamide], the IC50 in assay [1] and in assay [2] was 0.0158 to 0.0398 µM in each case.
With `Cc1cc2c(c(F)n1)-c1ncccc1CC(=O)N2CC(=O)Nc1ccc(C(F)(F)F)cc1` [#38, 2-(15-fluoro-13-methyl-9-oxo-3,10,14-triazatricyclo[9.4.0.0^2,7]pentadeca-1(11),2(7),3,5,12,14-hexaen-10-yl)-N-[4-(trifluoromethyl)phenyl]acetamide], the IC50 in assay [1] and in assay [2] was 0.1 to 0.501 µM throughout.
`O=C(CN1C(=O)Cc2ncccc2-c2c1cc(N1CC(F)(F)C1)nc2F)Nc1ccc(C(F)F)cc1` [#295, 2-[5-(3,3-difluoroazetidin-1-yl)-3-fluoro-9-oxo-4,8,12-triazatricyclo[9.4.0.0^2,7]pentadeca-1(15),2,4,6,11,13-hexaen-8-yl]-N-[4-(difluoromethyl)phenyl]acetamide]: the IC50 in assay [1] and in assay [2] was under 0.0158 µM in each case.
For the molecule `Cc1cc2c(cn1)-c1cc(C)c(C)cc1N(CC(=O)Nc1ccc(C(F)(F)F)cc1)C(=O)C2` [#21, N-[4-(trifluoromethyl)phenyl]-2-(3,9,10-trimethyl-6-oxo-5H-pyrido[4,3-d][1]benzazepin-7-yl)acetamide], the figures for the IC50 in assay [1] and in assay [2] were 0.1 to 0.501 µM and 0.0398 to 0.1 µM, respectively.
Consider `CC1C(=O)N(CC(=O)Nc2ccc(Cl)c(F)c2)c2cc(C#N)cc(F)c2-c2cccnc21` (single isomer, unassigned) [#310, N-(4-chloro-3-fluoro-phenyl)-2-[9-cyano-11-fluoro-5-methyl-6-oxo-5H-pyrido[2,3-d][1]benzazepin-7-yl]acetamide], for which the IC50 in assay [1] and in assay [2] was under 0.0158 µM throughout.
As to `Cc1cc2c(c(F)n1)-c1cccnc1C(C)(F)C(=O)N2CC(=O)Nc1ccc(C(F)(F)F)cc1` (centres unmarked) [#89, 2-(3,10-difluoro-5,10-dimethyl-9-oxo-4,8,12-triazatricyclo[9.4.0.0^2,7]pentadeca-1(11),2(7),3,5,12,14-hexaen-8-yl)-N-[4-(trifluoromethyl)phenyl]acetamide], the IC50 in assay [1] is 0.0398 to 0.1 µM; in assay [2], 0.1 to 0.501 µM.
On to `C[C@@H]1C(=O)N(CC(=O)Nc2ccc(C(F)F)cc2)c2cc(N3CC[C@@H](F)C3)nc(F)c2-c2cccnc21` (single isomer, unassigned) [#276, N-[4-(difluoromethyl)phenyl]-2-[3-fluoro-5-[3-fluoropyrrolidin-1-yl]-10-methyl-9-oxo-4,8,12-triazatricyclo[9.4.0.0^2,7]pentadeca-1(15),2,4,6,11,13-hexaen-8-yl]acetamide], for which the IC50 in assay [1] and in assay [2] was under 0.0158 µM each time.
